Experimental findings from patent US4734493A, “Novel anthracycline antibiotics” (Sanraku, Incorporated, priority 1985, dated 1988) are described below.

For assay [1], the system named is DNA synthesis in mouse leukemia L1210 culture cell. As to the kind of experiment: Nucleic acid synthesis inhibiting action: DNA synthesis (14C-thymidine intake) in L1210 culture cells. The assay is classed as cell-based. Conditions: 1 h, 60 minutes, 10% bovine serum, 37° C., read-out: 50% Inhibiting Concentration (IC50), Inhibition of DNA Synthesis. How it is done:
(§1) For example, […] of L1210 cells were inoculated, on RPM 11640 medium (Rosewellberg Research Institute) containing 20% bovine serum and the compound of the present invention was supplemented in a concentration of 0.0005 to 0.25 μg/ml followed by culturing at 37° C. in a carbon dioxide gas incubator. A 50% proliferation inhibiting concentration was determined as compared to control. Further the aforesaid L1210 culture cells were suspended in 8×10^5 cells/ml in RPM 11640 medium containing 10% bovine serum. After culturing at 37° C. for 1 to 2 hours in a carbon dioxide gas incubator, the compound of the present invention was supplemented in various concentrations. Fifteen minutes after, ^14 C-uridine (0.05 μCi/ml) or ^14 C-thymidine (0.05 μCi/ml) was added to the system followed by culturing at 37° C. for 60 minutes. To the reaction mixture was added chilled 10% trichloroacetic acid to discontinue the reaction. At the same time, insoluble matters were precipitated, further washed twice with chilled 5% trichloroacetic acid and then dissolved in formic acid to provide for measurement of the radioactivity. A 50% intake inhibiting concentration was determined from a rate of intake of the radioactivity in the control group added with no compound.

Assay [2] deals with RNA synthesis in mouse leukemia L1210 culture cell. Briefly: Nucleic acid synthesis inhibiting action: RNA synthesis (14C-uridine intake) in L1210 culture cells. In kind it is cell-based. Conditions: 1 h, 60 minutes, 10% bovine serum, 37° C., read-out: 50% Inhibiting Concentration (IC50), Inhibition of RNA Synthesis. The method, then:
as §1

For assay [3], the system named is mouse leukemia L1210 culture cell. Briefly: Proliferation inhibiting action against mouse leukemia L1210 culture cells. In kind it is cell-based. How it is done: as §1
Another assay relates to murine L1210 leukemia. Briefly: In vivo antitumor activity against murine L1210 leukemia in CDF1 mice. The method, then:
The therapeutic effect of obelmycins were studied on CDF1 mice bearing L1210 leukemia, From 24 hours after 1×10^5 L1210 cells/animal were intraperitoneally transplanted to CDF1 mice, Obelmycins were intraperitoneally given everyday for 10 days. The prolongation of the survival time was calculated relative to control animals receiving physiological saline as 100.
Inoculation: 1×10^5 cells/mouse (ip)
Treatment: day 1 to 10, daily (ip)

Setting [4] is: L1210 cells, RPM 11640 medium with 20% bovine serum, 37° C., read-out: 50% Inhibiting Concentration (IC50), Inhibition of Cell Proliferation.
[5] abbreviates: L1210, read-out: 50% Inhibiting Concentration (IC50), Inhibition of Cell Proliferation.
Setting [6] is: dose 3.1 μg/kg/day ip, daily day 1 to 10, CDF1 mice n=6, survival time relative to saline control as 100.

In brackets after ≈: the same amount, converted by molar mass. Read-outs that look alike come from different tables or passages of the source.

Consider `CCC1(O)CC(OC2CC(N(C)C)C(O)C(C)O2)c2c(O)c3c(c(O)c2C1O)C(=O)c1c(O)ccc(O)c1C3=O` (stereo not shown) [Obelmycin A], for which the IC50 in assay [1] amounted to 0.58 µg/mL (≈ 1.04 µM); in assay [2], 0.14 µg/mL (≈ 0.25 µM); in assay [3] (setting [4]), 0.001 µg/mL (≈ 0.00179 µM). Further, the “Antitumor effect T C (%)” value in the assay on murine L1210 leukemia (ip, 0.1 mg/kg, 24 h) worked out at 185%.

As for `CCC1(O)CC(OC2CC(N(C)C)C(OC3CCC(OC4CCC(O)C(C)O4)C(C)O3)C(C)O2)c2c(O)c3c(c(O)c2C1OC1CC(N(C)C)C(OC2CCC(OC4CCC(O)C(C)O4)C(C)O2)C(C)O1)C(=O)c1c(O)ccc(O)c1C3=O` (stereo not shown) [Obelmycin B], the values for the IC50 in assay [1], in assay [2] and in assay [3] (setting [5]) were 0.26 µg/mL (≈ 0.222 µM), 0.025 µg/mL (≈ 0.0213 µM) and 0.0009 µg/mL (≈ 0.000767 µM), respectively. Further, in the assay with murine L1210 leukemia (setting [6]), the “Antitumor effect T C (%)” value was 150%.

Consider `CCC1(O)CC(OC2CC(N(C)C)C(OC3CC(O)C(OC4CCC(O)C(C)O4)C(C)O3)C(C)O2)c2c(O)c3c(c(O)c2C1OC1CC(N(C)C)C(OC2CCC(OC4CCC(O)C(C)O4)C(C)O2)C(C)O1)C(=O)c1c(O)ccc(O)c1C3=O` (stereo not shown) [Obelmycin C], for which the IC50 turned out to be 0.38 µg/mL (≈ 0.32 µM) in assay [1], 0.043 µg/mL (≈ 0.0362 µM) in assay [2] and 0.001 µg/mL (≈ 0.000841 µM) in assay [3] (setting [5]). For the same molecule, in the assay with murine L1210 leukemia (setting [6]), the “Antitumor effect T C (%)” value worked out at 145%.

Turning to `CCC1(O)CC(OC2CC(N(C)C)C(OC3CC(O)C(OC4CCC(O)C(C)O4)C(C)O3)C(C)O2)c2c(O)c3c(c(O)c2C1OC1CC(N(C)C)C(OC2CC(O)C(OC4CCC(O)C(C)O4)C(C)O2)C(C)O1)C(=O)c1c(O)ccc(O)c1C3=O` (stereo not shown) [Obelmycin D], the IC50 in assay [1] stood at 1.2 µg/mL (≈ 0.996 µM); in assay [2] it was 0.175 µg/mL (≈ 0.145 µM); in assay [3] (setting [5]), 0.004 µg/mL (≈ 0.00332 µM). Moreover, the “Antitumor effect T C (%)” value in the assay on murine L1210 leukemia (setting [6]) came to 140%.

Turning to `CCC1(O)CCc2c(O)c3c(c(O)c2C1OC1CC(N(C)C)C(OC2CCC(OC4CCC(O)C(C)O4)C(C)O2)C(C)O1)C(=O)c1c(O)ccc(O)c1C3=O` (stereo not shown) [Obelmycin E], the IC50 in assay [1] came to 1.3 µg/mL (≈ 1.68 µM); in assay [2], 0.78 µg/mL (≈ 1.01 µM); in assay [3] (setting [5]), 0.062 µg/mL (≈ 0.0803 µM). In addition, in the assay on murine L1210 leukemia (dose 12.5 μg/kg/day ip, daily day 1 to 10, CDF1 mice n=6, survival time relative to saline control as 100), the “Antitumor effect T C (%)” value stood at 135%.

For `CCC1(O)CCc2c(O)c3c(c(O)c2C1OC1CC(N(C)C)C(OC2CC(O)C(OC4CCC(O)C(C)O4)C(C)O2)C(C)O1)C(=O)c1c(O)ccc(O)c1C3=O` (stereo not shown) [Obelmycin F], the IC50 in assay [1] turned out to be 1.43 µg/mL (≈ 1.82 µM); in assay [2], 0.6 µg/mL (≈ 0.762 µM); in assay [3] (setting [4]), 0.092 µg/mL (≈ 0.117 µM). In the assay on murine L1210 leukemia (ip, 0.025 mg/kg, 24 h), the “Antitumor effect T C (%)” value is recorded as 130%.

For the molecule `CCC1(O)CCc2c(O)c3c(c(O)c2C1OC1CC(N(C)C)C(O)C(C)O1)C(=O)c1c(O)ccc(O)c1C3=O` (stereo not shown) [Obelmycin G], the IC50 in assay [1] turned out to be 1.5 µg/mL (≈ 2.76 µM); in assay [2] it was 1.1 µg/mL (≈ 2.02 µM); in assay [3] (setting [4]), 0.2 µg/mL (≈ 0.368 µM). Besides, the “Antitumor effect T C (%)” value with murine L1210 leukemia (dose 200 μg/kg/day ip, daily day 1 to 10, CDF1 mice n=6, survival time relative to saline control as 100) is recorded as 145%.
